Test results taken from paper PMC7235042, “Venturicidin A, A Membrane-active Natural Product Inhibitor of ATP synthase Potentiates Aminoglycoside Antibiotics” (Scientific Reports, 2020).

Biological target: T1, AAC(6′)-Ie-APH(2′′)-Ia (Staphylococcus aureus, UniProt P0A0C1)
T1 construct: gene aacA-aphD; purified bifunctional enzyme (AAC and APH domains)
Assay: absorbance at […] nm, DTNB detection of released CoA-SH
Assay type: biochemical
Settings: AAC activity; co-substrate gentamicin 112 µg/mL

T1 sequence (P0A0C1 whole entry, the tested form may be a part): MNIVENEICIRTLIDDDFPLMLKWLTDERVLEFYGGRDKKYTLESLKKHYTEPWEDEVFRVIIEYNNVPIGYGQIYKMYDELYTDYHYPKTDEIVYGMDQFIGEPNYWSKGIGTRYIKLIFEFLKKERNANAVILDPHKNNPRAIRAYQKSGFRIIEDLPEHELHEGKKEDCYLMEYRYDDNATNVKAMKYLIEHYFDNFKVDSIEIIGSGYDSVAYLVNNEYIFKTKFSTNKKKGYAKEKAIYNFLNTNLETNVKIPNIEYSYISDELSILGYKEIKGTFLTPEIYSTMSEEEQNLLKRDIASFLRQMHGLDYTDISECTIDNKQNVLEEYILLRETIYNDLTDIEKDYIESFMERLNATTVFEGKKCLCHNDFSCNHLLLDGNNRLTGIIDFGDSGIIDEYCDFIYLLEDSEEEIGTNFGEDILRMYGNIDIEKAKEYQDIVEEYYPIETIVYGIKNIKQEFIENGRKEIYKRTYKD

## CC(=O)SCCNC(=O)CCNC(=O)[C@H](O)C(C)(C)COP(=O)(O)OP(=O)(O)OC[C@H]1O[C@@H](n2cnc3c(N)ncnc32)[C@H](O)[C@@H]1OP(=O)(O)O [acetyl CoA]
  absorbance at 412 nm, DTNB detection of released CoA-SH: CoA–SH that is derived from acetyl CoA after antibiotic acetylation
